The record followed here is ChEMBL document CHEMBL5380814, “Targeting Receptor-Interacting Protein Kinase 1 by Novel Benzothiazole Derivatives: Treatment of Acute Lung Injury through the Necroptosis Pathway” (J Med Chem, 2023).

For orientation: EC50 means the concentration that produces a half-maximal response. The CC50 is the concentration giving 50% cytotoxicity. Read a high CC50 as better tolerance by the cells. The Kd is the free concentration of one partner at which half of the binding sites on the other are occupied at equilibrium, for simple one-to-one binding.

SMILES strings stand for the structures. Active and inactive are the calls of the source. No cut-off for these calls is given here.

The test system of experiment [1] is HT-29. Kind of experiment: Anti-necroptotic activity in human HT-29 cells assessed as inhibition of human TNFalpha/Smac mimetic/Z-VAD-FMK induced necroptosis preincubated with compound for 16 to 24 hrs followed by TSZ stimulation for 12 hrs measured by cell-titre glo luminescent cell viability assay. The format is functional, cell-based.
In experiment [2] the test system is HT-29. Kind of experiment: Anti-necroptotic activity in human HT-29 cells assessed as inhibition of human TNFalpha/Smac mimetic/Z-VAD-FMK induced necroptosis preincubated with compound followed by TSZ stimulation for 12 hrs. It is filed as functional, cell-based.
Experiment [3] deals with HT-29. Kind of experiment: Cytotoxicity against human HT-29 cells incubated for 16 to 24 hrs measured by cell-titre glo luminescent cell viability assay. It is filed as functional. Conditions: time 16-24 hrs.
Experiment [4] has as its system HT-29. The experiment can be described thus: Cytotoxicity against human HT-29 cells incubated at 100 uM for 16 to 24 hrs measured by cell-titre glo luminescent cell viability assay. It is filed as functional, cell-based. Conditions: time 16-24 hrs.
A further experiment has as its system Mus musculus. Kind of experiment: In vivo anti-inflammatory activity in NNK induced induced C57BL/6J ALI mouse model assessed as lung injury score pretreated at 5 mg/kg, ip for 1 hr followed by NNK administration relative to disease model (reference value: 5.7 +/- 0.5). It is filed as functional.
Experiment [5] concerns the target Receptor-interacting serine/threonine-protein kinase 3 (Homo sapiens, UniProt Q9Y572). The experiment can be described thus: Binding affinity to human wildtype full length RIPK3 (M1 to Q307 residues) expressed in bacterial expression system assessed as dissociation constant by kinome scan kd select based qPCR analysis. (In general: Quantitative PCR measures a nucleic acid by following its amplification.)

Experiment [6] deals with T1, Receptor-interacting serine/threonine-protein kinase 1 (Homo sapiens, UniProt Q13546).
T1 sequence (Q13546 whole entry): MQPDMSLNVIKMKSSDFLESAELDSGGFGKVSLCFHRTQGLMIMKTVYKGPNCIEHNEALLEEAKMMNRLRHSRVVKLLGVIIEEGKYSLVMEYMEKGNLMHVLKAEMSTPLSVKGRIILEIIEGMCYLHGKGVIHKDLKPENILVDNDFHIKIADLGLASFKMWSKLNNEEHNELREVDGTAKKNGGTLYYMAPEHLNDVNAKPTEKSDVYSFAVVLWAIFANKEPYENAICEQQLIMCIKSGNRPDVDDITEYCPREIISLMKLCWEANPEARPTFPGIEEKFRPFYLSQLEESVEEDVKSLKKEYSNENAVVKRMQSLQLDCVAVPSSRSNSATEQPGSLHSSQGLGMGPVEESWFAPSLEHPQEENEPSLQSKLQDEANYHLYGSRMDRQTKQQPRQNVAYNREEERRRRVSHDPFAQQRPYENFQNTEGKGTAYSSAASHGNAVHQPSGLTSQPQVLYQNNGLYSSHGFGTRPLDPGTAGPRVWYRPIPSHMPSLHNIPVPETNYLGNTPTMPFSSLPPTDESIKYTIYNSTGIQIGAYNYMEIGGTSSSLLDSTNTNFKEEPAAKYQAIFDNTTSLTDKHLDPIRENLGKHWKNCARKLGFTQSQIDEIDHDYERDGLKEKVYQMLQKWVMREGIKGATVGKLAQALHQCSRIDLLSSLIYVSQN
Kind of experiment: Binding affinity to human wildtype full length RIPK1 (M1 to K305 residues) expressed in bacterial expression system assessed as dissociation constant by kinome scan kd select based qPCR analysis.

Sequence of Receptor-interacting serine/threonine-protein kinase 3 (Q9Y572 whole entry, the tested form may be a part): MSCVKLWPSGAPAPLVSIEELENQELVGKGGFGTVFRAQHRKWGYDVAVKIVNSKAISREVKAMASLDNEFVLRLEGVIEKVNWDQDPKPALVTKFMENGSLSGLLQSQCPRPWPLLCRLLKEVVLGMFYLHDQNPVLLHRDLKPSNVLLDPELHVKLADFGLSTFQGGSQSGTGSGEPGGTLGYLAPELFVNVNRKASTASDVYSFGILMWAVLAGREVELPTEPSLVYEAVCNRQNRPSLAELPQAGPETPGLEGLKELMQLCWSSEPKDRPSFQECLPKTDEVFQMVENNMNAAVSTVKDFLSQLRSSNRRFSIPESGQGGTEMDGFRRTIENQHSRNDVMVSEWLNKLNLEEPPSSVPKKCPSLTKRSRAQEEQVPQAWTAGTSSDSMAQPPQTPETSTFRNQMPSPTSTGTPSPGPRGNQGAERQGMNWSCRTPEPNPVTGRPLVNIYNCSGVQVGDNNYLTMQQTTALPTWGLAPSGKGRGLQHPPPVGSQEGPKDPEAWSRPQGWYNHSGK

`CCCC1CCC(C2CCC(C(=O)Nc3nc4cc(F)c(Oc5ccc(F)c(NC(=O)Cc6cccc(C(F)(F)F)c6)c5)cc4s3)CC2)CC1` (centres undefined): the 50% effective concentration (EC50) in the experiment on HT-29 [1] is above 10 µM. Besides, the outcome in the experiment with HT-29 [2] was inactive. In the experiment with HT-29 [3], this compound yielded a 50% cytotoxic concentration (CC50) above 100 µM. The outcome with HT-29 [4] was Active.
The like results for `CCCS(=O)(=O)NC1CCC(C(=O)Nc2nc3cc(F)c(Oc4ccc(F)c(NC(=O)Cc5cccc(C(F)(F)F)c5)c4)cc3s2)CC1` (centres undefined) were, in that order, 0.119 µM, “inactive”, above 100 µM and “Active”.
In the same order, the values of `CCCC(=O)NC1CCC(C(=O)Nc2nc3cc(F)c(Oc4ccc(F)c(NC(=O)Cc5cccc(C(F)(F)F)c5)c4)cc3s2)CC1` (centres undefined) are 0.0827 µM, “inactive”, above 100 µM and “Active”.
Regarding `C[C@@H]1C[C@H]2[C@@H]3CCC4=CC(=O)C=C[C@]4(C)[C@@]3(F)[C@@H](O)C[C@]2(C)[C@@]1(O)C(=O)CO` [DEXAMETHASONE], the Activity in the experiment with Mus musculus was 3.7.
With `O=C(Cc1cccc(C(F)(F)F)c1)Nc1cc(Oc2cc3sc(NC(=O)C4CCCC(NC(=O)C5CC5)C4)nc3cc2F)ccc1F` (centres undefined), the EC50 with HT-29 [1] came out at 0.0712 µM. Moreover, the result with HT-29 [2] was inactive. This compound yielded a CC50 with HT-29 [3] above 100 µM. In the experiment with HT-29 [4], the outcome was Active.
The like results for `O=C(Cc1cccc(C(F)(F)F)c1)Nc1cc(Oc2cc3sc(NC(=O)C4CCC(NC(=O)OCc5ccccc5)CC4)nc3cc2F)ccc1F` (centres undefined) were, in that order, 0.945 µM, “inactive”, above 100 µM and “Active”.
On to `CC(C)C(=O)NC1CCC(C(=O)Nc2nc3cc(F)c(Oc4ccc(F)c(NC(=O)Cc5cccc(C(F)(F)F)c5)c4)cc3s2)CC1` (centres undefined), for which the EC50 with HT-29 [1] was 0.0341 µM. The outcome in the experiment on HT-29 [2] was inactive. The same compound returned a CC50 in the experiment on HT-29 [3] above 100 µM. Also, the result in the experiment with HT-29 [4] was Active. In addition, the Kd in experiment [5] was above 10 µM; in experiment [6] it was 0.015 µM.
With `CC(C)(C)OC(=O)NC1CCCC(C(=O)Nc2nc3cc(F)c(Oc4ccc(F)c(NC(=O)Cc5cccc(C(F)(F)F)c5)c4)cc3s2)C1` (centres undefined), the 50% effective concentration (EC50) in the experiment on HT-29 [1] was determined as 0.334 µM. The result in the experiment with HT-29 [2] was inactive. The compound also had a 50% cytotoxic concentration (CC50) with HT-29 [3] above 100 µM. In the experiment with HT-29 [4], the outcome was Active.
Turning to `O=C(Cc1cccc(C(F)(F)F)c1)Nc1cc(Oc2cc3sc(NC(=O)C4CCC(NC(=O)CCCl)CC4)nc3cc2F)ccc1F` (centres undefined), the EC50 in the experiment on HT-29 [1] turned out to be 0.05 µM. The result with HT-29 [2] was inactive. The half-maximal cytotoxic concentration (CC50) with HT-29 [3] is above 100 µM. In the experiment on HT-29 [4], the result was Active. For the same compound, the Kd in experiment [5] is above 10 µM; in experiment [6], 0.043 µM.
Consider `O=C(Cc1cccc(C(F)(F)F)c1)Nc1cc(Oc2cc3sc(NC(=O)C4CCC(NC(=O)C5CC5)CC4)nc3cc2F)ccc1F` (centres undefined), for which the EC50 with HT-29 [1] was 0.0505 µM. Further, the result in the experiment with HT-29 [2] was inactive. In the experiment on HT-29 [3], the CC50 is above 100 µM. Also, the result with HT-29 [4] was Active.
The like results for `CCC(=O)NC1CCC(C(=O)Nc2nc3cc(F)c(Oc4ccc(F)c(NC(=O)Cc5cccc(C(F)(F)F)c5)c4)cc3s2)CC1` (centres undefined) were, in that order, 0.0832 µM, “inactive”, above 100 µM and “Active”.
In the case of `CCOCC(=O)NC1CCC(C(=O)Nc2nc3cc(F)c(Oc4ccc(F)c(NC(=O)Cc5cccc(C(F)(F)F)c5)c4)cc3s2)CC1` (centres undefined), the EC50 in the experiment with HT-29 [1] turned out to be 0.0484 µM. Further, in the experiment on HT-29 [2], the outcome was inactive. The compound also came in with a 50% cytotoxic concentration (CC50) in the experiment with HT-29 [3] above 100 µM. Moreover, in the experiment on HT-29 [4], the outcome was Active. Further, the Kd is above 10 µM in experiment [5] and 0.015 µM in experiment [6].
As to `O=C1CCC(C(=O)Nc2nc3ccc(Oc4ccc(F)c(NC(=O)Cc5cccc(C(F)(F)F)c5)c4)cc3s2)CC1`, the EC50 with HT-29 [2] was 0.05 µM. For the same compound, the CC50 with HT-29 [3] is above 50 µM.
As to `N#Cc1c(Oc2ccc(F)c(NC(=O)Cc3cccc(C(F)(F)F)c3)c2)ccc2nc(NC(=O)C3CC3)sc12`, the half-maximal cytotoxic concentration (CC50) in the experiment with HT-29 [3] is above 50 µM.
`CCCCC(=O)NC1CCC(C(=O)Nc2nc3cc(F)c(Oc4ccc(F)c(NC(=O)Cc5cccc(C(F)(F)F)c5)c4)cc3s2)CC1` (centres undefined): in the experiment with HT-29 [1], the concentration giving a half-maximal response (EC50) was 0.0424 µM. In the experiment with HT-29 [2], the result was inactive. Also, the CC50 in the experiment on HT-29 [3] was above 100 µM. Besides, the outcome with HT-29 [4] was Active. Besides, the Kd in experiment [5] was above 10 µM; in experiment [6] it was 0.045 µM.
For the compound `O=C(Cc1cccc(C(F)(F)F)c1)Nc1cc(Oc2cc3sc(NC(=O)C4CCC(O)CC4)nc3cc2F)ccc1F` (centres undefined), in the experiment with HT-29 [1], the 50% effective concentration (EC50) amounted to 0.0956 µM. Moreover, the outcome in the experiment on HT-29 [2] was inactive. For the same compound, in the experiment on HT-29 [3], the CC50 is above 100 µM. Also, the result in the experiment on HT-29 [4] was Active.
With `CC(=O)OCC(=O)NC1CCC(C(=O)Nc2nc3cc(F)c(Oc4ccc(F)c(NC(=O)Cc5cccc(C(F)(F)F)c5)c4)cc3s2)CC1` (centres undefined), in the experiment with HT-29 [1], the 50% effective concentration (EC50) was 0.0818 µM. The outcome in the experiment with HT-29 [2] was inactive. This compound also displayed a CC50 in the experiment on HT-29 [3] above 100 µM. The outcome in the experiment on HT-29 [4] was Active.
As for `O=C(Cc1cccc(C(F)(F)F)c1)Nc1cc(Oc2cc3sc(NC(=O)C4CCC(NC(=O)c5cccs5)CC4)nc3cc2F)ccc1F` (centres undefined), the concentration giving a half-maximal response (EC50) in the experiment on HT-29 [1] stood at 0.0529 µM. The outcome with HT-29 [2] was inactive. In the experiment with HT-29 [3], this compound showed a CC50 above 100 µM. Moreover, the outcome in the experiment on HT-29 [4] was Active. For the same compound, the equilibrium dissociation constant (Kd) in experiment [5] is above 10 µM; in experiment [6], 0.069 µM.
`O=C(Cc1cccc(C(F)(F)F)c1)Nc1cc(Oc2cc3sc(NC(=O)C4CCC(NC(=O)c5ccc(F)cc5)CC4)nc3cc2F)ccc1F` (centres undefined): in the experiment with HT-29 [1], the EC50 came to 0.0552 µM. For the same compound, the result in the experiment with HT-29 [2] was inactive. Moreover, the CC50 in the experiment on HT-29 [3] was above 100 µM. Moreover, in the experiment on HT-29 [4], the result was Active.
Turning to `O=C(Cc1cccc(C(F)(F)F)c1)Nc1cc(Oc2cc3sc(NC(=O)C4CCC(NC(=O)C5CCCC5)CC4)nc3cc2F)ccc1F` (centres undefined), the EC50 in the experiment on HT-29 [1] was 0.0729 µM. For the same compound, in the experiment with HT-29 [2], the outcome was inactive. In the experiment with HT-29 [3], this compound displayed a half-maximal cytotoxic concentration (CC50) above 100 µM. Further, the outcome with HT-29 [4] was Active.
The like results for `CCCC1CCC(C(=O)Nc2nc3cc(F)c(Oc4ccc(F)c(NC(=O)Cc5cccc(C(F)(F)F)c5)c4)cc3s2)CC1` (centres undefined) were, in that order, above 10 µM, “inactive”, above 100 µM and “Active”.
For the compound `COCC(=O)NC1CCC(C(=O)Nc2nc3cc(F)c(Oc4ccc(F)c(NC(=O)Cc5cccc(C(F)(F)F)c5)c4)cc3s2)CC1` (centres undefined), in the experiment with HT-29 [1], the concentration for a half-maximal effect (EC50) worked out at 0.0448 µM. In the experiment on HT-29 [2], the result was inactive. Moreover, the CC50 with HT-29 [3] was above 100 µM. Moreover, the result in the experiment on HT-29 [4] was Active. In addition, the Kd in experiment [5] was above 10 µM; in experiment [6] it was 0.015 µM.
For `O=C(Cc1cccc(C(F)(F)F)c1)Nc1cc(Oc2cc3sc(NC(=O)C4CCC(NS(=O)(=O)c5ccccc5)CC4)nc3cc2F)ccc1F` (centres undefined), the EC50 with HT-29 [1] is 0.235 µM. The outcome in the experiment with HT-29 [2] was inactive. In the experiment on HT-29 [3], the 50% cytotoxic concentration (CC50) was above 100 µM. Moreover, the outcome in the experiment with HT-29 [4] was Active.
Regarding `CC(C)(C)OC(=O)NC1CCC(C(=O)Nc2nc3cc(F)c(Oc4ccc(F)c(NC(=O)Cc5cccc(C(F)(F)F)c5)c4)cc3s2)CC1` (centres undefined), the EC50 in the experiment with HT-29 [1] was determined as 0.136 µM. In the experiment on HT-29 [2], the result was inactive. This compound also returned a CC50 with HT-29 [3] above 100 µM. In addition, in the experiment on HT-29 [4], the result was Active.
For `CC(C)CC(=O)NC1CCC(C(=O)Nc2nc3cc(F)c(Oc4ccc(F)c(NC(=O)Cc5cccc(C(F)(F)F)c5)c4)cc3s2)CC1` (centres undefined), the EC50 in the experiment with HT-29 [1] turned out to be 0.0475 µM. For the same compound, the result with HT-29 [2] was inactive. In the experiment on HT-29 [3], this compound gave a CC50 above 100 µM. Besides, the outcome in the experiment on HT-29 [4] was Active.
